Experimental findings from PubChem BioAssay (NCI) are described below.

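Where inhibition never reached the appropriate level, the endpoint shown equals the highest concentration tested. Otherwise, values were interpolated linearly from a five-concentration, 48-hour dose response in 96-well plates. GI50 marks 50% less growth. TGI: total growth inhibition.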

Among the test systems are DU-145 prostate; IGROV1 ovarian; LOX IMVI melanoma; MDA-MB-231 breast; OVCAR-8 ovarian; SK-MEL-2 melanoma; SK-MEL-28 melanoma; SK-MEL-5 melanoma; SNB-19 CNS; T-47D breast.
Common to all, as to test: NCI tumour cell line growth inhibition, 48 h

Turning to `CC1=CC(=O)C2=C(C)CCC3C(C)C(=O)OC3C12` (stereo not given), the TGI in the assay on DU-145 prostate, with IGROV1 ovarian, in the assay on LOX IMVI melanoma, in the assay on MDA-MB-231 breast, with OVCAR-8 ovarian and in the assay on SK-MEL-2 melanoma was > 100 µM throughout. Moreover, the TGI in the assay on SK-MEL-28 melanoma, in the assay on SK-MEL-5 melanoma, in the assay with SNB-19 CNS and in the assay with T-47D breast was > 100 µM each time.

Take `CCC(C)[C@H]1O[C@]2(CC[C@@H]1C)C[C@@H]1C[C@@H](C/C=C(\C)[C@@H](OC3C[C@H](OC)C(O[C@H]4C[C@H](OC)[C@@H](O)[C@H](C)O4)[C@H](C)O3)[C@@H](C)/C=C/C=C3\CO[C@@H]4[C@H](O)C(C)=C[C@@H](C(=O)O1)[C@]34O)O2` (stereo not given in full): the GI50 in the assay with DU-145 prostate is 5.59 µM; in the assay with IGROV1 ovarian, 2.95 µM; in the assay with LOX IMVI melanoma, 2.3 µM; in the assay with MDA-MB-231 breast, 2.31 µM; in the assay on OVCAR-8 ovarian it was 3.06 µM; with SK-MEL-2 melanoma, 2.04 µM. The GI50 in the assay on SK-MEL-28 melanoma is 2.67 µM; with SK-MEL-5 melanoma it was 1.49 µM; in the assay with SNB-19 CNS it was 3.75 µM; in the assay on T-47D breast, 1.57 µM. Also, the TGI turned out to be 18.1 µM in the assay on DU-145 prostate; 13.5 µM in the assay on IGROV1 ovarian; 5.79 µM in the assay on LOX IMVI melanoma; 6.85 µM in the assay with MDA-MB-231 breast; 12.5 µM in the assay with OVCAR-8 ovarian; 4.79 µM in the assay on SK-MEL-2 melanoma. The TGI with SK-MEL-28 melanoma was determined as 7.21 µM; in the assay with SK-MEL-5 melanoma, 2.82 µM; in the assay with SNB-19 CNS, 15.6 µM; in the assay with T-47D breast, 3.35 µM.

For the molecule `COC(=O)c1n[nH]c(C)c1N=NN(C)CCC#N`, the TGI in the assay on DU-145 prostate was 51.6 µM; in the assay with IGROV1 ovarian it was 93.6 µM; in the assay with LOX IMVI melanoma it was > 100 µM; with MDA-MB-231 breast, 62.8 µM; in the assay with OVCAR-8 ovarian, 34.4 µM; in the assay with SK-MEL-2 melanoma it was 61.9 µM. Further, the TGI with SK-MEL-28 melanoma was > 100 µM; with SK-MEL-5 melanoma, 74.5 µM; in the assay with SNB-19 CNS, 87 µM; in the assay on T-47D breast, 93 µM.

Turning to `COc1ccc2c(c1OC)C[C@@H]1c3c(cc4c(c3-2)OCO4)CCN1C`, the TGI in the assay on DU-145 prostate was > 100 µM; with IGROV1 ovarian, 99.1 µM; in the assay with LOX IMVI melanoma it was 29.1 µM; with MDA-MB-231 breast, > 100 µM; in the assay with OVCAR-8 ovarian, > 100 µM; in the assay with SK-MEL-2 melanoma, 88.7 µM. Also, the TGI in the assay on SK-MEL-28 melanoma was > 100 µM; in the assay with SK-MEL-5 melanoma, 38.1 µM; with SNB-19 CNS, > 100 µM; with T-47D breast, 90.2 µM.

On to `CC(=O)Nc1ccc2c(c1)C(c1ccccc1Cl)=Nc1c(n[nH]c1C)N2`, for which the GI50 was > 22.8 µM in the assay on DU-145 prostate; 5.66 µM with IGROV1 ovarian; 2.75 µM in the assay with LOX IMVI melanoma; > 17.1 µM in the assay on MDA-MB-231 breast; 13.4 µM in the assay on OVCAR-8 ovarian; > 25 µM in the assay on SK-MEL-2 melanoma. The GI50 with SK-MEL-28 melanoma was > 23.5 µM; in the assay with SK-MEL-5 melanoma, 17.6 µM; with SNB-19 CNS it was 6.36 µM; in the assay on T-47D breast it was 8.38 µM. In addition, the TGI with DU-145 prostate is > 25 µM; in the assay with IGROV1 ovarian it was > 24 µM; with LOX IMVI melanoma, > 25 µM; in the assay on MDA-MB-231 breast, > 25 µM; in the assay with OVCAR-8 ovarian, > 25 µM; in the assay with SK-MEL-2 melanoma it was > 25 µM. Further, the TGI with SK-MEL-28 melanoma is > 25 µM; in the assay with SK-MEL-5 melanoma, > 25 µM; in the assay on SNB-19 CNS it was > 25 µM; in the assay with T-47D breast it was > 23.6 µM.

As for `C/C(=N\NC(=S)N1CCCCC1)c1ccccn1`, the GI50 in the assay with DU-145 prostate is 0.236 µM; in the assay with IGROV1 ovarian it was < 0.01 µM; in the assay with LOX IMVI melanoma, < 0.0106 µM; with MDA-MB-231 breast, 0.123 µM; in the assay on OVCAR-8 ovarian, < 0.01 µM; in the assay with SK-MEL-2 melanoma, 0.702 µM. Also, the GI50 is 1.13 µM with SK-MEL-28 melanoma, 0.0694 µM with SK-MEL-5 melanoma, 0.158 µM with SNB-19 CNS and < 0.01 µM in the assay with T-47D breast. Also, the TGI in the assay on DU-145 prostate was 5.67 µM; in the assay with IGROV1 ovarian, 5.79 µM; with LOX IMVI melanoma, 9.03 µM; with MDA-MB-231 breast, 6.33 µM; in the assay on OVCAR-8 ovarian, 2.42 µM; with SK-MEL-2 melanoma, 3.8 µM. Also, the TGI with SK-MEL-28 melanoma was 6.66 µM; with SK-MEL-5 melanoma, 0.87 µM; in the assay with SNB-19 CNS, 14.5 µM; in the assay with T-47D breast it was 5.15 µM.

Turning to `CS(=O)(=O)Nc1cncc(-c2ccc3ncnc(Nc4ccc(F)c(Cl)c4)c3c2)c1`, the GI50 in the assay with DU-145 prostate was 2.25 µM; in the assay with IGROV1 ovarian, 0.34 µM; with LOX IMVI melanoma, 1.73 µM; in the assay with MDA-MB-231 breast, 2.92 µM; in the assay on OVCAR-8 ovarian, 3.73 µM; in the assay on SK-MEL-2 melanoma it was 1.5 µM. The GI50 in the assay with SK-MEL-28 melanoma was 2.65 µM; with SK-MEL-5 melanoma, 1.83 µM; with SNB-19 CNS, 2.09 µM; with T-47D breast, 0.189 µM. Further, the TGI in the assay with DU-145 prostate was determined as 15.2 µM; in the assay with IGROV1 ovarian, 1.91 µM; with LOX IMVI melanoma, 10.2 µM; with MDA-MB-231 breast it was 17.6 µM; in the assay with OVCAR-8 ovarian it was 23.7 µM; in the assay with SK-MEL-2 melanoma, 3.79 µM. Besides, the TGI with SK-MEL-28 melanoma came out at 15.6 µM; in the assay on SK-MEL-5 melanoma, 4.48 µM; with SNB-19 CNS, 18.1 µM; in the assay with T-47D breast, 2.5 µM.

Turning to `c1cc(NNc2cccc(-c3nn[nH]n3)c2)cc(-c2nn[nH]n2)c1`, the TGI with DU-145 prostate, with IGROV1 ovarian, in the assay with LOX IMVI melanoma, in the assay with MDA-MB-231 breast, in the assay on OVCAR-8 ovarian and in the assay on SK-MEL-2 melanoma was > 100 µM throughout. For the same molecule, the TGI in the assay with SK-MEL-28 melanoma, in the assay on SK-MEL-5 melanoma, with SNB-19 CNS and in the assay with T-47D breast was > 100 µM each time.

`O=c1[nH]c2ccccc2c2ccccc12`: the GI50 with DU-145 prostate, in the assay on IGROV1 ovarian, in the assay with LOX IMVI melanoma, with MDA-MB-231 breast, in the assay on OVCAR-8 ovarian and in the assay with SK-MEL-2 melanoma was > 100 µM throughout. Further, the GI50 with SK-MEL-28 melanoma was > 100 µM; in the assay with SK-MEL-5 melanoma, 91.5 µM; in the assay with SNB-19 CNS, > 100 µM; in the assay on T-47D breast, > 100 µM. The TGI in the assay on DU-145 prostate, with IGROV1 ovarian, in the assay with LOX IMVI melanoma, in the assay on MDA-MB-231 breast, with OVCAR-8 ovarian and in the assay with SK-MEL-2 melanoma was > 100 µM throughout. Besides, the TGI in the assay on SK-MEL-28 melanoma, in the assay on SK-MEL-5 melanoma, in the assay with SNB-19 CNS and with T-47D breast was > 100 µM in each case.
